One assay concerns p-H3 in HCT116 cells. Description: Histone phosphorylation (p-H3) assay. The format is cell-based. As to conditions: Homo sapiens, HCT-116; HCT116 cells, 4 hr incubation; read-out: p-H3 IC50. In a few lines:
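HCT116 cells (2.5×10^4/well, attached overnight) treated 4 h with 8-point 3-fold compound dilutions at 0.5% DMSO. Lysates dot-blotted onto nitrocellulose and probed for p-H3 with β-actin on the same membrane, fluorescent secondary antibodies, Odyssey scan; duplicate wells.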

The next assay concerns the target T1, VEGFR2 kinase (Homo sapiens, UniProt P35968).
T1 construct: purchased Cell Signaling Technology
The assay is described as follows: VEGFR2 kinase assay. The format is biochemical. As to conditions: 6 μM ATP, 1 mM MnCl2; rounded to 1 significant figure. In a few lines:
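VEGFR2 phosphorylates CSKtide with 6 μM ATP and 1 mM MnCl2 for 1 hr, otherwise following the Aurora A kinase protocol. Detection by IMAP fluorescence polarization, binding reagent diluted 1:1200 in 1:1 binding buffer A/B. Run in duplicate with solvent control.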

The target in another assay is T2, Aurora B kinase (Homo sapiens, UniProt Q96GD4).
T2 construct: purchased BPS Bioscience
The assay is described as follows: Aurora B kinase assay (IMAP fluorescence polarization). It is filed as biochemical. As to conditions: 10 μM ATP; rounded to 1 significant figure; read-out: Aur-B IC50. In a few lines:
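Reaction started with 100 nM fluorescein-labelled PKAtide and 10 μM ATP, run 45 min at room temperature, then stopped with IMAP binding reagent (1:400). After 30 min shaking at room temperature, fluorescence polarization read; run in duplicate with solvent control.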

In the next assay the target is T3, Aurora A kinase (Homo sapiens, UniProt O14965).
T3 construct: purchased Upstate Biotech
T3 sequence (O14965 1-403): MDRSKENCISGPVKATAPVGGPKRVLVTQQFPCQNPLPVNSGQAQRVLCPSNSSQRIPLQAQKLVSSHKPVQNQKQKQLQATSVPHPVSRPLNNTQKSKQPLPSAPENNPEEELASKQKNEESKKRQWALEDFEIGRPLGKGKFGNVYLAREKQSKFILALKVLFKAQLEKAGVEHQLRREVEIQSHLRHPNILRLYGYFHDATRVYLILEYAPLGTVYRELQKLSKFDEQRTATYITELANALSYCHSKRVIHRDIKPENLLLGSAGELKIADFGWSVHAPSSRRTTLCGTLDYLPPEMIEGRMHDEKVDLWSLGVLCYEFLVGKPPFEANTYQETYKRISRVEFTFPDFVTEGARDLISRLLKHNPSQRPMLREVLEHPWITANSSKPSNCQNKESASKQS
The assay is described as follows: Aurora A kinase assay (IMAP fluorescence polarization). The format is biochemical. As to conditions: 10 μM ATP; rounded to 1 significant figure; read-out: Aur-A IC50. In a few lines: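 Compounds (eight 3-fold dilutions, 2.5% DMSO final) were preincubated 5 min at room temperature with Aurora A kinase in buffer with 1 mM DTT. Reaction with 100 nM fluorescein-PKAtide and 10 μM ATP ran 45 min at room temperature, then was stopped with IMAP binding reagent; fluorescence polarization was read after 30 min.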

Assay [1] relates to HCT116 (human colon carcinoma) cells. The assay is described as follows: HCT116 cytotoxicity assay (CellTiter-Glo). As to conditions: HCT-116, 72 h, cytotoxicity, three days culture, read-out: HCT116 IC50. The format is cell-based.
Assay [2] has as its system HUVEC-2 (human umbilical vein endothelial cells). The assay is described as follows: HUVEC VEGF-dependent proliferation assay (BrdU). The format is cell-based. As to conditions: VEGF (25 ng/mL)-dependent proliferation, read-out: HUVEC IC50. An excerpt:
The cell lines HL60 (human promyelocytic leukemia) and HCT116 (human colon carcinoma) were obtained from the American Type Culture Collection, Manassas, Va., U.S.A., and HUVEC-2 (human umbilical vein endothelial cells) from BD Biosciences, Bedford, Mass., U.S.A. Aurora A kinase was obtained from Upstate Biotech, Billerica, Mass., U.S.A.; Aurora B kinase from BPS Bioscience, San Diego, Calif., U.S.A.; and VEGFR2 kinase from Cell Signaling Technology, Danvers, Mass., U.S.A. The IMAP FP Screening Express kit was obtained from Molecular Devices, Sunnyvale, Calif., U.S.A.; the CellTiter-Glo assay kit from Promega Corporation, Madison, Wis., U.S.A.; and the Cellular DNA Cytometric Analysis Reagent Kit and BrdU labeling and detection kit from Roche Diagnostics Corporation, Indianapolis, Ind., U.S.A. All products were used in accordance with manufacturer's directions. Kinase inhibition assays and the histone phosphorylation (p-H3) assay were conducted in duplicate, and the cytotoxicity and HUVEC proliferation assays were conducted in triplicate, in each case with solvent control.
HUVEC-2 cells were seeded at 10^4 cells/well in a 96-well plate coated with 0.1% gelatin in complete medium. […] The compounds were serially diluted in DMSO, and added to the cells at 0.5% DMSO final concentration. After 2 hr, VEGF (25 ng/mL) was added; and after a further day, 5-bromo-2-deoxyuridine (BrdU, 10 μM) was added to label proliferating cells, and the cells incubated for another day. The plates were then processed using the Roche BrdU labeling and detection kit, and the VEGF-dependent antiproliferative activity of the compounds determined.

T2 sequence (Q96GD4 whole entry): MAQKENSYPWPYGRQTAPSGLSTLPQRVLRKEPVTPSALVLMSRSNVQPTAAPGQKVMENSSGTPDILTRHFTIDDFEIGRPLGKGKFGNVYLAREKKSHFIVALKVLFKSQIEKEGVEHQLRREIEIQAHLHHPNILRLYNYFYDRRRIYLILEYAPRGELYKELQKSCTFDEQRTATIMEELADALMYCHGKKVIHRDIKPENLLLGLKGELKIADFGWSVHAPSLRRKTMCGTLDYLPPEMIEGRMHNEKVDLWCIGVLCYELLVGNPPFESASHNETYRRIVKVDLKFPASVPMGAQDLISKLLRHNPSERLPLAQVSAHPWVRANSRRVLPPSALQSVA
T1 sequence (P35968 20-1356): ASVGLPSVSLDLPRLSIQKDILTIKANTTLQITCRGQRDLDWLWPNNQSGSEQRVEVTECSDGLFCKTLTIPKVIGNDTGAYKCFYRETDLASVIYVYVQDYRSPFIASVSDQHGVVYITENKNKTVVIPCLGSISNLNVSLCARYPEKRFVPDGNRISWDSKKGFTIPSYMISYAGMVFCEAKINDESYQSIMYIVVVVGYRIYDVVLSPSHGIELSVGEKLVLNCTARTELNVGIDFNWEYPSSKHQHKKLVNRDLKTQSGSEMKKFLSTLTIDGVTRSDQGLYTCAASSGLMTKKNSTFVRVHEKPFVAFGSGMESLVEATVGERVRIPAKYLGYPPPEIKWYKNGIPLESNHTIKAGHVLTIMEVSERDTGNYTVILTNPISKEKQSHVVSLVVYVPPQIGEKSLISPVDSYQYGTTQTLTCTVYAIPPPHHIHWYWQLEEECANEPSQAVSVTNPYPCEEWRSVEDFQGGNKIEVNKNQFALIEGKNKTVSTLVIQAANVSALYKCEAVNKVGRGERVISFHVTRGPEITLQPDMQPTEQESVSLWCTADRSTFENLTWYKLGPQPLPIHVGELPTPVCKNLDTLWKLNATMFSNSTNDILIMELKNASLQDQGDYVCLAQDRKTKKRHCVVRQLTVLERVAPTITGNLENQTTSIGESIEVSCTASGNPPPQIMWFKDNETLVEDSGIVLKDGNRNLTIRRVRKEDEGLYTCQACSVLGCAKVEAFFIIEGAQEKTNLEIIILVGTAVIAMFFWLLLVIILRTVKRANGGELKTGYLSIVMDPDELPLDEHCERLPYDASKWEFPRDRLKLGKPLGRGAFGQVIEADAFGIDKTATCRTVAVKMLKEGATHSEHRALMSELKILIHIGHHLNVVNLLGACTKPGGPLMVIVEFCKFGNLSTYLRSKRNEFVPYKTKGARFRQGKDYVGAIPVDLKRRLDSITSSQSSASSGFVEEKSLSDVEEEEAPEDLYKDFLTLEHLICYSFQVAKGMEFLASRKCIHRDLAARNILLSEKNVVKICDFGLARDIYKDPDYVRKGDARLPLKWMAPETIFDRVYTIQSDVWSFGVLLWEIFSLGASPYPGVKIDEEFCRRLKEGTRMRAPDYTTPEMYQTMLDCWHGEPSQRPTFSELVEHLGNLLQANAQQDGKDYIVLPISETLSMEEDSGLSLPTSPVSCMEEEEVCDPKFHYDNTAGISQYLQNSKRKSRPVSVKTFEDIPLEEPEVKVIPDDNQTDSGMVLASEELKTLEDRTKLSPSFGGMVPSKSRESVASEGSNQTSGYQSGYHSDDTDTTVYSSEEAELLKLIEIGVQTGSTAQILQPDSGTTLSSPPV

Turning to `Cc1cc2c(cc1C)NC(=C(C(N)=O)c1ncc(C(=O)NCCCN3CCOCC3)c(C(F)(F)F)n1)N2` [Compound 133A], the IC50 was 300 nM in the assay with p-H3 in HCT116 cells; 60 nM against VEGFR2 kinase; 10 nM on Aurora B kinase; 40 nM at Aurora A kinase; 800 nM in assay [1]; 200 nM in assay [2].
In the case of `CN1CCN(C(=O)c2cnc(C(C(N)=O)=C3Nc4ccccc4S3)nc2C(F)(F)F)CC1` (single isomer, unassigned) [Compound 130A, 2-[benzothiazol-2(3H)-ylidene]-2-[5-(4-methylpiperazine-1-carbonyl)-4-trifluoromethylpyrimidin-2-yl]acetamide], the IC50 in the assay with p-H3 in HCT116 cells came to 300 nM; at VEGFR2 kinase it was 20 nM; on Aurora B kinase, 9 nM; at Aurora A kinase, 100 nM; in assay [1] it was 2000 nM; in assay [2], 400 nM.
For the compound `NC(=O)/C(=C1\Nc2ccc(S(=O)(=O)N3CCNCC3)cc2S1)c1nccc(C(F)(F)F)n1` [Compound 129A], the half-inhibitory concentration (IC50) in the assay with p-H3 in HCT116 cells turned out to be 1000 nM; on VEGFR2 kinase it was 100 nM; at Aurora B kinase it was 10 nM; at Aurora A kinase, 30 nM; in assay [1], 1000 nM; in assay [2], 300 nM.
Consider `CN(C)CCCNC(=O)c1ccc2c(c1)N/C(=C(/C(N)=O)c1nccc(C(F)(F)F)n1)N2` [Compound 62A], for which the IC50 in the assay with p-H3 in HCT116 cells was determined as 400 nM; at VEGFR2 kinase, 6 nM; on Aurora B kinase, 10 nM; at Aurora A kinase it was 70 nM; in assay [1] it was 60 nM; in assay [2] it was 60 nM.
For the compound `CN1CCN(Cc2ccc3c(c2)S/C(=C(/C(N)=O)c2nccc(C(F)(F)F)n2)N3)CC1` [Compound 93A], the IC50 in the assay with p-H3 in HCT116 cells worked out at 100 nM; at VEGFR2 kinase, 10 nM; on Aurora B kinase it was 20 nM; at Aurora A kinase it was 20 nM; in assay [1] it was 300 nM; in assay [2] it was 30 nM.
With `COc1ccnc(/C(C(N)=O)=C2/Nc3ccc(CN4CCOCC4)cc3S2)n1` [Compound 92A], the IC50 with p-H3 in HCT116 cells was 500 nM; at VEGFR2 kinase, 400 nM; on Aurora B kinase it was 30 nM; on Aurora A kinase, 70 nM; in assay [1] it was 5000 nM; in assay [2], 60 nM.
With `NC(=O)/C(=C1\Nc2ccccc2S1)c1ncc(C(=O)NCCCN2CCOCC2)c(C(F)(F)F)n1` [Compound 131A], the IC50 in the assay on p-H3 in HCT116 cells amounted to 900 nM; against VEGFR2 kinase, 200 nM; at Aurora B kinase, 60 nM; on Aurora A kinase, 90 nM; in assay [1], 2000 nM; in assay [2] it was 800 nM.
Turning to `CN1CCN(CCOc2ccc3c(c2)S/C(=C(/C(N)=O)c2nccc(C(F)(F)F)n2)N3)CC1` [Compound 114A], the IC50 is 50 nM with p-H3 in HCT116 cells; 40 nM against VEGFR2 kinase; 20 nM at Aurora B kinase; 40 nM on Aurora A kinase; 600 nM in assay [1]; 40 nM in assay [2].
`CN1CCN(S(=O)(=O)c2ccc3c(c2)S/C(=C(/C(N)=O)c2nccc(C(F)(F)F)n2)N3)CC1` [Compound 126A]: the IC50 with p-H3 in HCT116 cells was 2000 nM; against VEGFR2 kinase, 70 nM; on Aurora B kinase, 20 nM; on Aurora A kinase, 20 nM; in assay [1], 2000 nM; in assay [2], 30 nM.
With `NCC(=O)Nc1ccc2c(c1)SC(=C(C(N)=O)c1nccc(C(F)(F)F)n1)N2` (single isomer, unassigned) [Compound 76A, 2-{6-[(2-aminoacetyl)-amino]benzothiazol-2(3H)-ylidene}-2-(4-trifluoromethylpyrimidin-2-yl)acetamide], the IC50 came to 200 nM with p-H3 in HCT116 cells; 80 nM against VEGFR2 kinase; 5 nM at Aurora B kinase; 50 nM at Aurora A kinase; 700 nM in assay [1]; 100 nM in assay [2].
Regarding `NC(=O)/C(=C1\Nc2ccc(C(=O)NC3CCNCC3)cc2S1)c1nccc(C(F)(F)F)n1` [Compound 71A], the IC50 stood at 200 nM in the assay with p-H3 in HCT116 cells; 4 nM at VEGFR2 kinase; 40 nM on Aurora B kinase; 20 nM on Aurora A kinase; 200 nM in assay [1]; 90 nM in assay [2].
On to `NC(=O)/C(=C1\Nc2ccc(NC(=O)[C@@H]3CCCN3)cc2N1)c1nccc(C(F)(F)F)n1` [Compound 80A], for which the IC50 with p-H3 in HCT116 cells is 90 nM; at VEGFR2 kinase, 50 nM; on Aurora B kinase, 4 nM; on Aurora A kinase, 10 nM; in assay [1] it was 500 nM; in assay [2] it was 100 nM.
On to `NCCNC(=O)c1ccc2c(c1)S/C(=C(/C(N)=O)c1nccc(C(F)(F)F)n1)N2` [Compound 63A], for which the IC50 with p-H3 in HCT116 cells was found to be 400 nM; on VEGFR2 kinase it was 5 nM; on Aurora B kinase, 30 nM; at Aurora A kinase, 30 nM; in assay [1], 200 nM; in assay [2], 60 nM.
Regarding `NC(=O)/C(=C1\Nc2ccc(N3CCC(N4CCCCC4)CC3)cc2S1)c1nccc(C(F)(F)F)n1` [Compound 121A], the IC50 in the assay with p-H3 in HCT116 cells amounted to 90 nM; against VEGFR2 kinase, 20 nM; at Aurora B kinase, 8 nM; on Aurora A kinase it was 30 nM; in assay [1], 1000 nM; in assay [2], 900 nM.
Turning to `NC(=O)/C(=C1\Nc2ccc(C(=O)N3CCC(N)CC3)cc2N1)c1nccc(C(F)(F)F)n1` [Compound 66A], the IC50 in the assay on p-H3 in HCT116 cells worked out at 200 nM; against VEGFR2 kinase it was 2 nM; at Aurora B kinase it was 10 nM; at Aurora A kinase it was 20 nM; in assay [1], 200 nM; in assay [2], 50 nM.
As for `Cn1ccnc1-c1ccc2c(c1)S/C(=C(/C(N)=O)c1nccc(C(F)(F)F)n1)N2` [Compound 106A], the IC50 with p-H3 in HCT116 cells stood at 900 nM; at VEGFR2 kinase, 30 nM; on Aurora B kinase, 20 nM; at Aurora A kinase, 3 nM; in assay [1] it was 2000 nM; in assay [2] it was 80 nM.
`CN(C)CCOc1ccc2c(c1)S/C(=C(/C(N)=O)c1nccc(C(F)(F)F)n1)N2` [Compound 116A]: the IC50 with p-H3 in HCT116 cells was found to be 80 nM; at VEGFR2 kinase it was 9 nM; on Aurora B kinase, 8 nM; on Aurora A kinase, 40 nM; in assay [1] it was 400 nM; in assay [2], 100 nM.

Source of the values: patent publication US8129396B2, “2-[1H-benzimidazol-2(3H)-ylidene]-2-(pyrimidin-2-yl)acetamides and 2-[benzothiazol-2(3H)-ylidene]-2-(pyrimidin-2-yl)acetamides as kinase inhibitors” (Telik, Inc., priority 2008, dated 2012).
